Results on four molecules are retold here after patent US20140363818A1, “EGFR and PAR2 Regulation of Intestinal Permeability” (UNIVERSITY OF MARYLAND, BALTIMORE, priority 2009, published 2014).

For experiment [1], the target named is T1, PAR2 (Mus musculus, UniProt P55086).
T1 sequence (P55086 26-399): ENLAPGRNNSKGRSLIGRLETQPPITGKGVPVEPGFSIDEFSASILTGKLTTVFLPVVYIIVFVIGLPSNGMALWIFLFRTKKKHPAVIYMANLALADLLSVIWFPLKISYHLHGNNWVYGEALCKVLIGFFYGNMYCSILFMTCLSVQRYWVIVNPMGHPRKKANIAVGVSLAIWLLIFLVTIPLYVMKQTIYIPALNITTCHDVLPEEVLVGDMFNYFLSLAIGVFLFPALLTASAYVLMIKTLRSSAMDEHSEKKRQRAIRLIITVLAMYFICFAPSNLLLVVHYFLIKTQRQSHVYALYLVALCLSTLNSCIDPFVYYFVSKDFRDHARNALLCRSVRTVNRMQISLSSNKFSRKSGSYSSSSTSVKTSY
To be noted: demonstrated in WT, but not PAR2−/− mice; cited from earlier work.

The test system of experiment [2] is C57BL/6 WT murine small intestine segments. Put plainly: Ex vivo intestinal permeability (TEER) in the microsnapwell system. The class given is cell-based, mouse. To be noted: for TEER change / intestinal permeability, dose-response experiment: C57BL/6 WT segments, zonulin 5-50 μg/well, trypsin-cleaved pre-HP2 50 μg/well. The method, then: The effect of zonulin/pre-HP2 on ex vivo intestinal permeability was monitored in the microsnapwell system as described (3). Briefly, segments of small intestine from C57BL/6 WT mice were mounted onto the microsnapwell system, and their luminal side was exposed for 30 min to medium alone or to the medium containing increasing concentrations of the purified recombinant zonulin. TEER was measured at time 0 and at 30-min time intervals for a period of 2 h using a planar electrode (Endohm SNAP electrode attached to an Evom-G WPI analyzer; World Precision Instruments) and expressed in Ω/cm^2 after normalization. […] In another set of experiments, zonulin was tested both in C57BL/6 WT and PAR2−/− mice. […]
Recombinant pre-HP2 (from now on defined as zonulin) was applied to WT C57BL/6 murine small intestine segments mounted in microsnapwells.

Experiment [3] relates to 129/SvEv WT mice. Put plainly: In vivo gastrointestinal permeability with sugar probes (lactulose/mannitol, sucrose). Further details: species or system mouse. As to conditions: for small intestinal permeability (lacman ratio) vs BSA-treated controls / gastroduodenal permeability (sucrose fractional excretion) vs BSA-treated controls: 170 mg/mouse [sic], gavage, challenge day vs 3 days before; for small intestinal permeability (lacman ratio) vs BSA-treated controls: FIG. 4A; for gastroduodenal permeability (sucrose fractional excretion) vs BSA-treated controls: FIG. 4B. The method, then:
They were acclimatized to the experimental techniques for 3 wk, by fasting the animals for 3 h, gavaging the animals with a sugar probe, and placing them in metabolic cages twice each wk. On the day of protein challenge, the animals received either 170 micrograms of the purified single-chain zonulin in a 60 microliter solution or a similar amount of purified 2-chain cleaved HP2, together with the sugar gavage as described (4). […] Two days after the drug challenge day, mice were again placed in metabolic cages to measure their recovery from the treatment.
To establish whether zonulin might alter intestinal permeability in vivo, mice were gavaged with the single chain recombinant pre-HP2 protein (170 mg/mouse), and gastroduodenal and small intestinal permeability tested using specific sugar probes (sucrose and lactulose/mannitol, respectively) as described (14).

Experiment [4] deals with T2, EGFR (Homo sapiens, UniProt P00533).
T2 construct: serum-starved, high EGFR-expressing Caco-2 cells; endogenous in cells; host or cells: Caco-2
Put plainly: EGFR phosphorylation in serum-starved Caco-2 cells (immunoprecipitation / Western blot). Format: cell-based. To be noted: for EGFR phosphorylation compared with single chain zonulin: two-chain mature HP2 10 ml/ml as printed, Caco-2, FIG. 5D. The method, then:
PAR2 expression in Caco-2 cells was silenced using 2 different PAR2 siRNAs [HSS103471 and HSS103473 (50 nM each); Invitrogen].
The effect of zonulin on ex vivo and in vivo intestinal permeability was performed as described (8, 14) and reported above. To determine whether zonulin can activate EGFR, increasing concentrations of either zonulin or two-chain mature HP2 were added for increasing exposure times to serum-starved, high EGFR-expressing Caco-2 cells. The cells were lysed and processed for WB with anti-phospho EGFR (Y1068) Ab (Cell Signaling Technol. Inc.) as reported (40).
To determine whether zonulin can activate EGFR, increasing concentrations of baculovirus-derived, recombinant zonulin were added to Caco-2 intestinal epithelial cells. The cells were lysed, immunoprecipitated with anti-EGFR Ab, and processed for phosphotyrosine immunoblotting (PY-Plus).

Entries after “also recorded” stand apart in the source; their conditions may differ. A value given as a limit tells only on which side of the number the result lay.

In the case of FCIGRL [AT1002], the “changes in TEER” value in experiment [1] is recorded as “PAR2-dependent changes in TEER”.

As for `COc1cc2ncnc(Nc3cccc(Cl)c3)c2cc1OC` [AG1478, reference compound], the “effect on zonulin-induced drop in TEER” value in experiment [2] (5 μM AG1478 with zonulin 10 μg/well, C57BL/6 WT, 90 min, FIG. 5C) is recorded as “abolished TEER reduction; also recorded: prevented”.

Turning to “zonulin: Recombinant human haptoglobin-2 precursor (pre-HP2), uncleaved single chain, expressed in a baculovirus system”, the “TEER change / intestinal permeability, dose-response experiment” value in experiment [2] (FIG. 3) was “increased intestinal permeability in C57BL/6 WT mice in a dose-and time-dependent manner”. Also, the “TEER change in wild-type intestinal segments” value in experiment [2] (C57BL/6 WT, 10 μg/well, baseline vs 90 min, FIG. 5C, 6B) is “decreased TEER; also recorded: significant drop in TEER”. Further, in experiment [2] (PAR2−/− mice, 10 mg zonulin as printed, time 0 vs 90 min, FIG. 6B), the “TEER change in PAR2−/− intestinal segments” value was “failed to reduce TEER; also recorded: did not increase intestinal permeability”. Moreover, in experiment [2] (added to mucosal (luminal) aspect of WT C57BL/6 small intestine segments, FIG. 3), the “concentration at which TEER decreased (increased permeability)” value is no less than 40 µg/mL. The “concentration inducing significant drop in TEER” value in experiment [2] (luminal side, C57BL/6 WT, starting at 60 min post-exposure, tested 5, 10, 25, 50 μg/well, FIG. 3) is 10 μg/well. In experiment [3], the “small intestinal permeability (lacman ratio) vs BSA-treated controls” value is on record as “increases” and the “gastroduodenal permeability (sucrose fractional excretion) vs BSA-treated controls” value is “increases”. Besides, in experiment [3] (listed as Zonulin/preHP2), the “small intestinal permeability (lacman ratio) vs BSA-treated controls” value is given as “increased” and the “gastroduodenal permeability (sucrose fractional excretion) vs BSA-treated controls” value is on record as “increased”. Moreover, the “time for small intestinal permeability to return to pre-challenge values” in experiment [3] (after zonulin challenge, FIG. 4C) was no more than 48 h. For the same molecule, in experiment [3] (after zonulin challenge, FIG. 4D), the “time for gastroduodenal permeability to return to pre-challenge values” was no more than 48 h. The “concentration at which tyrosine phosphorylation of EGFR increased” value in experiment [4] (Caco-2 cells, anti-EGFR IP, PY-Plus blot, FIG. 5A) is no less than 3 mg/mL. Also, the “concentration at which the dose-dependent increase in EGFR phosphorylation reached a plateau” value in experiment [4] (serum-starved Caco-2 cells, FIG. 5A) was found to be 3 ml/ml. The “EGFR phosphorylation vs media” value in experiment [4] (zonulin 10 ml/well as printed, alone, serum-starved Caco-2, FIG. 5B) was “increase in EGFR phosphorylation”.

B1: two-chain HP2: Cleaved two-chain mature HP2 (α2 and β chains) obtained by trypsin digestion of single chain zonulin (protein)
chain 1: VDSGNDVTDIADDGCPKPPEIAHGYVEHSVRYQCKNYYKLRTEGDGVYTLNDKKQWINKAVGDKLPECEADDGCPKPPEIAHGYVEHSVRYQCKNYYKLRTEGDGVYTLNNEKQWINKAVGDKLPECEAVCGKPKNPANPVQR
chain 2: ILGGHLDAKGSFPWQAKMVSHHNLTTGATLINEQWLLTTAKNLFLNHSENATAKDIAPTLTLYVGKKQLVEIEKVVLHPNYSQVDIGLIKLKQKVSVNERVMPICLPSKDYAEVGRVGYVSGWGRNANFKFTDHLKYVMLPVADQDQCIRHYEGSTVPEKKTPKSPVGVQPILNEHTFCAGMSKYQEDTCYGDAGSAFAVHDLEEDTWYATGILSFDKSCAVAEYGVYVKVTSIQDWVQKTIAENHHHHHH
As to B1, the “TEER change / intestinal permeability, dose-response experiment” value in experiment [2] (FIG. 3) is listed as “no consistent TEER changes”. Moreover, the “small intestinal permeability (lacman ratio) vs BSA-treated controls” value in experiment [3] is reported as “failed to alter; also recorded: no changes”. In addition, the “gastroduodenal permeability (sucrose fractional excretion) vs BSA-treated controls” value in experiment [3] is recorded as “failed to alter; also recorded: no changes”. For the same molecule, the “EGFR phosphorylation compared with single chain zonulin” value was “dramatically reduced” in experiment [4] and “significantly reduced” in experiment [4] (listed as two-chain mature HP2).
